One assay concerns AhR. The following applies: cited from earlier work.
For assay [1] the following is noted: cited from earlier work.
Assay [2] concerns human T cells cocultured with moDCs. Put plainly: Human mixed lymphocyte reaction. It counts as cell-based. The note with it: LPS and IFN-γ-matured moDCs, 3 days, 1 nM–1 µM.
Assay [3] concerns coculture of H1299 NSCLC cells, primary human PBMCs, and primary human fibroblasts. Put plainly: BioMAP Oncology Panel. Type of assay: cell-based. The note with it: 0.37, 1.1, or 3.3 µM, 48 hours.

The text below walks through data of publication PMC10649913 (Journal for Immunotherapy of Cancer, 2023).

As to `CC(C)n1cnc2c(NCCc3ccc(O)cc3)nc(-c3csc4ccccc34)nc21` [SR1], the Mouse cross-reactivity entry in the assay with AhR is recorded as “not mouse cross-reactive”. As to `Cc1ccccc1N=Nc1ccc(NC(=O)c2ccnn2C)c(C)c1` [CH-223191], in assay [1], the AhR-independent activities entry was “AhR-independent proproliferative activities”. `NS(=O)(=O)NCCNc1nonc1C(=NO)Nc1ccc(F)c(Br)c1` [epacadostat]: in assay [2], the “IL-2 production from T cells (MLR)” value is recorded as “no effect”. Also, in assay [3], the “Cytokine production (IFN-γ, IL-17, IL-2, IL-6, TNF-α)” value is “predominantly anti-inflammatory responses with decreases in IFN-γ, IL-2, IL-6, and IL-17”.
